Data on ten molecules can be found in US12398132B2, “Derivatives of 4-(imidazo[1,2-a]pyridin-3-yl)-n-(pyridinyl)pyrimidin-2-amine as therapeutic agents” (AUCENTRA THERAPEUTICS PTY LTD, priority 2019, dated 2025).

pKi: −log10 of the molar value. Like-named read-outs stand apart in the source and are kept apart here.

Assay [1] has as its target CDK4/D1 (Homo sapiens, UniProt P11802). Nature of the assay: ADP Glo kinase assay, CDK4/D1. The assay is classed as biochemical. The settings on record: CDK4D1; for remaining activity at 1 µM: compound at 1 μM (values marked *), read-out: residual enzymatic activity (%) at 1 μM*; for remaining activity at 10 µM: compound at 10 μM, read-out: residual enzymatic activity (%) at 10 μM. (In general: ADP-Glo first removes unused ATP, then detects ADP through luciferase.)
Protocol: Inhibition of FLT3(WT), FLT3(ITD) and FLT3(D835Y) and CDKs were determined using ADP Glo Kinase assays (Promega Corporation, Madison, WI, USA). […] Similarly, kinase reaction for CDK4/D1 and CDK6/D3 was performed with reaction buffer (40 nM Tris base pH 7.5, 20 mM MgCl2, 0.4 mM DTT), 0.1 mg/ml BSA and RB-CTF substrate (retinoblastoma protein1 C-terminal fraction). For CDK9/CyclinT1, the kinase reaction was performed with the standard assay buffer and Kinase Dilution Buffer and RBER-IRStide substrate. Half-maximal inhibition (IC50) values were calculated using a 4-parameter logistic non-linear regression model with Graphpad prism (Version 6.0). Apparent inhibition constants (Ki) values were calculated from Km (ATP) and IC50 values for the respective kinases.

Assay [2] deals with CDK6/D3 (Homo sapiens, UniProt Q00534). Nature of the assay: ADP Glo kinase assay, CDK6/D3. The settings on record: CDK6D3; for remaining activity at 1 µM: compound at 1 μM (values marked *), read-out: residual enzymatic activity (%) at 1 μM*; for remaining activity at 10 µM: compound at 10 μM, read-out: residual enzymatic activity (%) at 10 μM. The assay is classed as biochemical.

Assay [3] addresses CDK9/CyclinT1 (Homo sapiens, UniProt P50750). Nature of the assay: ADP Glo kinase assay, CDK9/CyclinT1. The assay is classed as biochemical. As to conditions: CDK9T1; for remaining activity at 1 µM: compound at 1 μM (values marked *), read-out: residual enzymatic activity (%) at 1 μM*; for pKi: apparent Ki calculated from Km (ATP) and IC50, read-out: CDK inhibition Ki.
The subject of assay [4] is MV-4-11. Nature of the assay: Proliferation assay (resazurin/MTT), MV-4-11. It counts as cell-based. The settings on record: Homo sapiens, MV4-11, read-out: 72 h Growth inhibition GI50, MV-4-11 cells. (In general: Alamar Blue is a resazurin reagent that responds to reducing activity.)
The test system of assay [5] is U937. Nature of the assay: Proliferation assay (resazurin/MTT), U937. The assay is classed as cell-based. The settings on record: Homo sapiens, U-937, read-out: 72 h Growth inhibition GI50, U937 cells.
Assay [6] deals with CDK1B (Homo sapiens, UniProt P06493).
Assay [7] has as its target CDK2E1 (Homo sapiens, UniProt P24941). As to conditions: 1 µM.
For assay [8], the target named is CDK7HMAT1 (Homo sapiens, UniProt P50613).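 Further: kinase activity measured with an ADP-Glo luminescent kinase assay.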
CDK7HMAT1, sequence (P50613 whole entry): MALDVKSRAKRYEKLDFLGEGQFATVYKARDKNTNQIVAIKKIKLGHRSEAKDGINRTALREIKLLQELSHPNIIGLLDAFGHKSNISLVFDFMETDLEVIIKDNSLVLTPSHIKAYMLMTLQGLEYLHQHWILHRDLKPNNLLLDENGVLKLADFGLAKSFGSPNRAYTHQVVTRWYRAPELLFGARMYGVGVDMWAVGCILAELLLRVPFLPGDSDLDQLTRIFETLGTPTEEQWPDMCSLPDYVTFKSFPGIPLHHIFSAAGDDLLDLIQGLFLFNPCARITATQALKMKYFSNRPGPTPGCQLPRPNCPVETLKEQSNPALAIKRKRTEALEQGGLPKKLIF
CDK7HMAT1, sequence (P51946 whole entry partner): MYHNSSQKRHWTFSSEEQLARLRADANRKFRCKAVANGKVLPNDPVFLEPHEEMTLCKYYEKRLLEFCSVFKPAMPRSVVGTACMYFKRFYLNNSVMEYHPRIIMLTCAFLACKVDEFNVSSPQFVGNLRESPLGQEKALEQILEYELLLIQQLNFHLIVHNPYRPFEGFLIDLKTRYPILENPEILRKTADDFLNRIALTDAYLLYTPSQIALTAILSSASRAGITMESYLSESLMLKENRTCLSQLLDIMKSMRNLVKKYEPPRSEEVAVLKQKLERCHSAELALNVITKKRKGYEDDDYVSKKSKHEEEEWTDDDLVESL
CDK7HMAT1, sequence (P51948 whole entry partner): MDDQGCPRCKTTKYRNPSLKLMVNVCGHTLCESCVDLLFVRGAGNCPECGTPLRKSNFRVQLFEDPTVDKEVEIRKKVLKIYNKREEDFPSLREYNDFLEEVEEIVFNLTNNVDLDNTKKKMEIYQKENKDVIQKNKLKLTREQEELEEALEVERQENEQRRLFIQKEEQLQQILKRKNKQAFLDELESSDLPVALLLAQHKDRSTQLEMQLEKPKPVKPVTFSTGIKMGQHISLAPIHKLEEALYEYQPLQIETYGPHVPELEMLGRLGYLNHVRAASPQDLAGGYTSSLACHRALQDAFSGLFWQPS

CDK1B, sequence (P06493 whole entry): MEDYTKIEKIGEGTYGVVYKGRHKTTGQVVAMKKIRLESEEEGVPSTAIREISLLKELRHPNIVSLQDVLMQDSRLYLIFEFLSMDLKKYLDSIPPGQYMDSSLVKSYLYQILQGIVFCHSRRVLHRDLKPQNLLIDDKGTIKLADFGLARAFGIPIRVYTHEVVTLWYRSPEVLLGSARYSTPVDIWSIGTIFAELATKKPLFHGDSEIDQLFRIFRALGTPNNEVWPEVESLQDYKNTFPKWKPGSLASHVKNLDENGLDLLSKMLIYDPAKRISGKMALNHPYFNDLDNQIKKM
CDK1B, sequence (P14635 whole entry partner): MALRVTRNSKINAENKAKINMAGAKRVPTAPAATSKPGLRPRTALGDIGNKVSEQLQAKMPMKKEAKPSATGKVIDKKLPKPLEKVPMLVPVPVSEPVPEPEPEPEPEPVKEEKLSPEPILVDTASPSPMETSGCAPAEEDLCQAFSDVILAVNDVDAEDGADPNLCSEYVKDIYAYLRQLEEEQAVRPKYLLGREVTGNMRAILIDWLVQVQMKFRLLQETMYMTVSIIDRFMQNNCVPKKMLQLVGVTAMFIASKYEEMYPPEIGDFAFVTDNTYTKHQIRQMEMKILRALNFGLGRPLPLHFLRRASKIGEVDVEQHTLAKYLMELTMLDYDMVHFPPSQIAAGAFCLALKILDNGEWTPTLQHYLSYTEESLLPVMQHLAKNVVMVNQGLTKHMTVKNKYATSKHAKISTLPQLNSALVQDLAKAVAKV
CDK4/D1, sequence (P11802 whole entry, species assumed): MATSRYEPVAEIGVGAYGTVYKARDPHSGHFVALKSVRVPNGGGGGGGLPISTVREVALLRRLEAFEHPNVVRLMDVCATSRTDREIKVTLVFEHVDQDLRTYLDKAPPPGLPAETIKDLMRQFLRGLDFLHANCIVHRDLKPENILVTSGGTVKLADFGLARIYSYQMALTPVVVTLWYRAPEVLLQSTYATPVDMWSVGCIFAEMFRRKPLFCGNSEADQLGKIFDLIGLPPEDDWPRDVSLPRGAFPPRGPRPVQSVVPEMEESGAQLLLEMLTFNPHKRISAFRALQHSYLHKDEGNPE
CDK4/D1, sequence (P24385 whole entry partner, species assumed): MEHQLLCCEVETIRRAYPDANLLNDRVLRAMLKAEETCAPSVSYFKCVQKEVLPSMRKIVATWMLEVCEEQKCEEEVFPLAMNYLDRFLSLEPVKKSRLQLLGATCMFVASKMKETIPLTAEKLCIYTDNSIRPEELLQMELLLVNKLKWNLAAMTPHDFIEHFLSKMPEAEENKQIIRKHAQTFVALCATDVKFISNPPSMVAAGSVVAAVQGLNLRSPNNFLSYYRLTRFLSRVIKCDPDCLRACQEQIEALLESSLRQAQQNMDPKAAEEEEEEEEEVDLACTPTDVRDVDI
CDK6/D3, sequence (Q00534 whole entry, species assumed): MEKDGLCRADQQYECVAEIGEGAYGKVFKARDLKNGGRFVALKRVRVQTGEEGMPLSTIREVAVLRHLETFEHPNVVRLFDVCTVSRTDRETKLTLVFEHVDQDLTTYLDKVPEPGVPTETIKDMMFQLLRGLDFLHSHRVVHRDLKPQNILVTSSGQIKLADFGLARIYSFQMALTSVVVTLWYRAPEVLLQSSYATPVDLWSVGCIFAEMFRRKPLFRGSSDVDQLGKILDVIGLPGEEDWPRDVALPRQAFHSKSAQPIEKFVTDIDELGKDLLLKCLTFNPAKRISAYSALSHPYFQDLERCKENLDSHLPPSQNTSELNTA
CDK6/D3, sequence (P30281 whole entry partner, species assumed): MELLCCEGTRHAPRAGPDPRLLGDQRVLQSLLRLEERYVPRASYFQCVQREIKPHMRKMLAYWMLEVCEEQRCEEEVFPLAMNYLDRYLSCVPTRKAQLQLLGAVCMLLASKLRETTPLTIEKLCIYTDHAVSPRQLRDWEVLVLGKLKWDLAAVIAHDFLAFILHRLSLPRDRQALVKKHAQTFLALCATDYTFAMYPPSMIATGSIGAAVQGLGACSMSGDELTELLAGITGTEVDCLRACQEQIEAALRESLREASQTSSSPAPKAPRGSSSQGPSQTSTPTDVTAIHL
CDK9/CyclinT1, sequence (P50750 whole entry, species assumed): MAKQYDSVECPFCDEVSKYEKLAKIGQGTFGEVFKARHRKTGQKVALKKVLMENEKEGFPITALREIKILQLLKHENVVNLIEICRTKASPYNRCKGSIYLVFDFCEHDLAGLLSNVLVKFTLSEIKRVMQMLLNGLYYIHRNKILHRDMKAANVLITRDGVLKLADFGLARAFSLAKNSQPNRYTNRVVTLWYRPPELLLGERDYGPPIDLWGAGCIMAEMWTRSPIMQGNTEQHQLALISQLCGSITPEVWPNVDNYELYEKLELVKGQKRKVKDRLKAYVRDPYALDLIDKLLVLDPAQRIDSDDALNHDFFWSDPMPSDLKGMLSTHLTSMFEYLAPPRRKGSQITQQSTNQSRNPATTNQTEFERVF
CDK9/CyclinT1, sequence (O60563 whole entry partner, species assumed): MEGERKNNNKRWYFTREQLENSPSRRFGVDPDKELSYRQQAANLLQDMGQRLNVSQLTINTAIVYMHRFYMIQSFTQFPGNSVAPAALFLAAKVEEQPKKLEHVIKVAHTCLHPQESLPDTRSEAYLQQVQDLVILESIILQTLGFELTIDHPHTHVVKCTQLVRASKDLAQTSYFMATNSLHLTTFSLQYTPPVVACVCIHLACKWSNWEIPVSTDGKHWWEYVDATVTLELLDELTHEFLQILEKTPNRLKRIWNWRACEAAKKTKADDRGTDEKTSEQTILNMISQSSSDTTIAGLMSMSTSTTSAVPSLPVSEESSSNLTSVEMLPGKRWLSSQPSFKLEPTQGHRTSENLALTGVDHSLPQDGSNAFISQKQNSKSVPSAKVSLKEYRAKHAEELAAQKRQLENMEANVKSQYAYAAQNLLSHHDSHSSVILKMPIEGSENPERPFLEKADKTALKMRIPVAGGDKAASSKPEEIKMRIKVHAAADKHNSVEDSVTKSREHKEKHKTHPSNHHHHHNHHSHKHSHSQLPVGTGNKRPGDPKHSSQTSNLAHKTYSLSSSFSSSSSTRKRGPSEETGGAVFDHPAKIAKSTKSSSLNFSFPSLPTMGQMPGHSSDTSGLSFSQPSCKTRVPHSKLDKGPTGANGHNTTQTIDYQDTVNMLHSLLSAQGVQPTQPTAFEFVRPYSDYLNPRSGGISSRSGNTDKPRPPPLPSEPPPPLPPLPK

The GI50 is the concentration that inhibits growth by half. Regarding `CC(=O)N1CCN(c2ccc(Nc3nccc(-c4cnc5ccc(Nc6ccccc6)cn45)n3)nc2)CC1` [Cmpd 28, 1-(4-(6-((4-(6-(Phenylamino)imidazo[1,2-a]pyridin-3-yl)pyrimidin-2-yl)amino)pyridin-3-yl)piperazin-1-yl)ethan-1-one], the remaining activity at 1 µM in assay [1] is 77%; in assay [2], 80%; in assay [3], 61%. Besides, the GI50 in assay [4] stood at 6 nM; in assay [5], 1490 nM. The activity was determined as 98% in assay [6] (1 µM), 86% in assay [7] and 91% in assay [8] (1 µM).
Take `CC(=O)N1CCN(c2ccc(Nc3nccc(-c4cnc5ccc(-c6coc7ccccc67)cn45)n3)nc2)CC1` [Cmpd 33, 1-(4-(6-((4-(6-(Benzofuran-3-yl)imidazo[1,2-a]pyridin-3-yl)pyrimidin-2-yl)amino)pyridin-3-yl)piperazin-1-yl)ethan-1-one]: the remaining activity at 1 µM in assay [1] came out at 60%; in assay [2], 79%; in assay [3], 72%. Also, the figures for the GI50 in assay [4] and in assay [5] were 3 nM and 1860 nM, respectively. Also, the figures for the activity in assay [6] (1 µM), in assay [7] and in assay [8] (1 µM) were 98%, 84% and 88%, respectively.
For orientation: pKi means −log10 of the Ki, conventionally taken in molar units. As for `CC(=O)N1CCN(c2ccc(Nc3nccc(-c4cnc5ccc(F)cn45)n3)nc2)CC1` [Cmpd 8, 1-(4-(6-((4-(6-Fluoroimidazo[1,2-a]pyridin-3-yl)pyrimidin-2-yl)amino)pyridin-3-yl)piperazin-1-yl)ethan-1-one], the remaining activity at 10 µM was determined as 27% in assay [1] and 40% in assay [2]. In assay [3], the negative logarithm of the Ki (pKi) was 6.54. The GI50 in assay [4] turned out to be 30 nM; in assay [5], 1410 nM. Moreover, the activity in assay [6] (10 µM) is 27%; in assay [7], 59%; in assay [8] (10 µM), 82%.
With `CC(=O)N1CCN(c2ccc(Nc3nccc(-c4cnc5ccc(-c6cn(C)c7ccccc67)cn45)n3)nc2)CC1` [Cmpd 40, 1-(4-(6-((4-(6-(1-Methyl-1H-indol-3-yl)imidazo[1,2-a]pyridin-3-yl)pyrimidin-2-yl)amino)pyridin-3-yl)piperazin-1-yl)ethan-1-one], the remaining activity at 1 µM in assay [1] turned out to be 55%; in assay [2], 78%; in assay [3] it was 82%. Moreover, the GI50 was 1 nM in assay [4] and 1340 nM in assay [5]. The activity was determined as 97% in assay [6] (1 µM), 93% in assay [7] and 104% in assay [8] (1 µM).
For the molecule `CC(=O)N1CCN(c2ccc(Nc3nccc(-c4cnc5ccc(-c6ccccc6)cn45)n3)nc2)CC1` [Cmpd 14, 1-(4-(6-((4-(6-Phenylimidazo[1,2-a]pyridin-3-yl)pyrimidin-2-yl)amino)pyridin-3-yl)piperazin-1-yl)ethan-1-one], the remaining activity at 10 µM in assay [1] came out at 69%; in assay [2] it was 92%. In addition, the pKi in assay [3] was 6.16. The 50% growth inhibitory concentration (GI50) was 7 nM in assay [4] and 664 nM in assay [5]. The activity in assay [6] (10 µM) was 94%; in assay [7], 56%; in assay [8] (10 µM), 78%.
With `CC(=O)N1CCN(c2ccc(Nc3nccc(-c4cnc5ccc(-c6csc7ccccc67)cn45)n3)nc2)CC1` [Cmpd 35, 1-(4-(6-((4-(6-(Benzo[b]thiophen-3-yl)imidazo[1,2-a]pyridin-3-yl)pyrimidin-2-yl)amino)pyridin-3-yl)piperazin-1-yl)ethan-1-one], the values for the remaining activity at 1 µM in assay [1], in assay [2] and in assay [3] were 77%, 76% and 91%, respectively. For the same molecule, the values for the GI50 in assay [4] and in assay [5] were 7 nM and > 10000 nM, respectively. Besides, the activity in assay [6] (1 µM) was 81%; in assay [7], 100%; in assay [8] (1 µM), 81%.
Regarding `CC(=O)N1CCN(c2ccc(Nc3nccc(-c4cnc5ccc(-c6c[nH]c7ncccc67)cn45)n3)nc2)CC1` [Cmpd 42, 1-(4-(6-((4-(6-(1H-pyrrolo[2,3-b]pyridin-3-yl)imidazo[1,2-a]pyridin-3-yl)pyrimidin-2-yl)amino)pyridin-3-yl)piperazin-1-yl)ethan-1-one], the figures for the remaining activity at 1 µM in assay [1] and in assay [2] were 52% and 64%, respectively. The pKi in assay [3] was 6.22. The GI50 was 5 nM in assay [4] and 1560 nM in assay [5]. For the same molecule, the activity in assay [6] (1 µM) was found to be 95%; in assay [7], 46%; in assay [8] (1 µM) it was 80%.
Consider `CC(=O)N1CCN(c2ccc(Nc3nccc(-c4cnc5ccc(-c6cc7ccccc7[nH]6)cn45)n3)nc2)CC1` [Cmpd 37, 1-(4-(6-((4-(6-(1H-Indol-2-yl)imidazo[1,2-a]pyridin-3-yl)pyrimidin-2-yl)amino)pyridin-3-yl)piperazin-1-yl)ethan-1-one], for which the remaining activity at 1 µM in assay [1] is 78%; in assay [2] it was 78%; in assay [3] it was 39%. Besides, the 50% growth inhibitory concentration (GI50) in assay [4] was 10 nM; in assay [5], 2420 nM. The results for the activity in assay [6] (1 µM), in assay [7] and in assay [8] (1 µM) were 96%, 91% and 103%, respectively.
Consider `CC(=O)N1CCN(c2ccc(Nc3nccc(-c4cnc5ccc(-c6c[nH]c7ccccc67)cn45)n3)nc2)CC1` [Cmpd 41, 1-(4-(6-((4-(6-(1H-Indol-3-yl)imidazo[1,2-a]pyridin-3-yl)pyrimidin-2-yl)amino)pyridin-3-yl)piperazin-1-yl)ethan-1-one], for which the remaining activity at 1 µM in assay [1] came out at 54%; in assay [2] it was 89%; in assay [3] it was 42%. For the same molecule, the GI50 in assay [4] amounted to 1 nM; in assay [5] it was 1280 nM. The activity in assay [6] (1 µM) is 98%; in assay [7], 81%; in assay [8] (1 µM), 79%.
Consider `CC(=O)N1CCN(c2ccc(Nc3nccc(-c4cnc5ccc(-c6ccsc6)cn45)n3)nc2)CC1` [Cmpd 26, 1-(4-(6-((4-(6-(Thiophen-3-yl)imidazo[1,2-a]pyridin-3-yl)pyrimidin-2-yl)amino)pyridin-3-yl)piperazin-1-yl)ethan-1-one], for which the remaining activity at 1 µM is 73% in assay [1], 73% in assay [2] and 36% in assay [3]. In addition, the GI50 in assay [4] was determined as 4 nM; in assay [5], 538 nM. Further, the values for the activity in assay [6] (1 µM), in assay [7] and in assay [8] (1 µM) were 95%, 73% and 83%, respectively.
